Source: US4410459A, “Process for preparation of cytostatic compounds” (priority 1980, dated 1983)
Where two headings read alike, the source gives them in different places.

What was measured:
[1] = Acute toxicity in mice (i.p., Lichfield and Wilcoxon), with paralytic side effect; type: in vivo, male Swiss mice; settings: for LD50: mouse, in vivo, ip; for Paralytic side effect: symbols 0 / + not defined
Description: The acute toxicity of the compounds according to the invention was tested on male Swiss mice weighing 27 to 31 g. The tests were carried out on groups of six mice. Test compounds were administered intraperitoneally, as injectable solutions prepared with physiological saline solution and optionally one drop of Tween 80.

P 388 mouse leukaemia = assay: P 388 leukaemia test (life span of i.p. transplanted mice); type: in vivo, BDF hybrid mice
Description: (§1) The effect of the new compounds on intraperitoneally transplantable tumors (P 388 mouse leukaemia and NK/Ly ascites lymphoma) is described hereinbelow. The P 388 leukaemia test was performed on BDF hybrid mice. The tests were carried out on groups of six mice and 10^6 tumor cells/animal were transplanted intraperitoneally. Administration of the test compounds was started in the 24th hour after transplantation. Treatment was performed intraperitoneally and the body weight and state of animals was controlled every day. The effect obtained on the treated animals is expressed in % of the mean length of life of the control group, given in days.

NK/Ly ascites lymphoma = assay: NK/Ly ascites tumour test (survival and tumor-free animals); type: in vivo, Swiss-H/Riop outbred mice
Description: as §1
(§2) Into groups of ten Swiss-H/Riop outbred mice from our own breed 5×10^6 ascites tumour cells were transplanted intraperitoneally. In the 24th hour after transplantation treatment was started and the compounds were administered daily, altogether five times. The mean length of life of the control group amounted to 15.7 days.

HeLa culture = assay: Metaphase block stages in stained tissue cultures; type: cell-based; settings: for effect on mitosis at lowest dose: 0.001 μg./ml.
Description: The test compounds were dissolved in the tissue cultures (HeLa culture) in concentrations ranging from the threshold dose of 1×10^-3 μg./ml. up to 100 μg./ml. In 24-hour cultures, by in vivo microscopic evaluation of the metaphase-arresting affect the following results were obtained.
Under similar conditions but using stained tissue cultures slight differences could be observed which can be classified as follows:
The first stage (minimal effective dose) is characterized by an increased ratio of blocked mitoses. A part is abnormal mitoses, for example three-group mitosis or polar chromosomes also occur. Generally the anaphases have already disappeared.
In the second stage a strong metaphase blocking is observed and practically there is no regulare mitosis present. Chromosomes are in the form of a loose glomus. The proportion of interphase cells is low.
In the third stage the chromosomas are aggregated in a mass in the middle of the cell. This state is called picnomitosis of "Ball-Metaphase".
In the fourth stage already the interphase cells are influenced. More particularly, the number of the blocked cells is decreased since they are not able to take part in mitosis. The cytoplasm of the cells (in interphase) is extended, its border is irregular, "fringy", the cells frequently have an elongated, fibroplast-like shape.
Finally, in the fifth stage the cytoplasm is filled in by a fine, reticular structure and the interphase cell has unambiguously been killed by the treatment.

[2] = tested on: intraperitoneally transplantable tumors (P 388 mouse leukaemia and NK/Ly ascites lymphoma); assay: Similar transplanted tumor tests with N-desmethyl-N-(methoxymethyl)-20'-desoxy-leurosidine (life span); type: in vivo; settings: for Treated/Control: mean length of life
Description: as §1, §2
Similar tests were performed with N-desmethyl-N-(methoxymethyl)-20'-desoxy-leurosidine. In these tests the doses and the number of treatments were varied.

[3] = Mus musculus, P388, ip, mean length of life, 8 × 0.4 mg./kg. i.p., read-out: Treated/Control
[4] = Mus musculus, P388, ip, mean length of life, 8 × 4.0 mg./kg. i.p., read-out: Treated/Control
[5] = Mus musculus, P388, ip, mean length of life, 8 × 8.0 mg./kg. i.p., read-out: Treated/Control
[6] = Mus musculus, P388, ip, mean length of life, 8 × 2.0 mg./kg. i.p., read-out: Treated/Control
[7] = Mus musculus, P388, ip, mean length of life, 8 × 1.0 mg./kg. i.p., read-out: Treated/Control

Row | Structure (SMILES) | LD50 [1] [mg/kg] | Paralytic side effect [1] | Mean length of life, treated (P 388 mouse leukaemia; 8 × 0.4 mg./kg. i.p.) [days] | Mean length of life, treated (P 388 mouse leukaemia; 8 × 4.0 mg./kg. i.p.) [days] | Mean length of life, treated (P 388 mouse leukaemia; 8 × 8.0 mg./kg. i.p.) [days] | response vs control in vivo at 0.4 mg/kg (P 388 mouse leukaemia; [3]) [%] | response vs control in vivo at 4 mg/kg (P 388 mouse leukaemia; [4]) [%] | response vs control in vivo at 8 mg/kg (P 388 mouse leukaemia; [5]) [%] | other results
1 | C=CCOCN1c2cc(OC)c(C3(C(=O)OC)CC4CN(CCc5c3[nH]c3ccccc53)CC(O)(CC)C4)cc2C23CCN4CC=CC(CC)(C(OC(C)=O)C(O)(C(=O)OC)C12)C43 (centres unmarked) [N-Desmethyl-N-(allyloxymethyl)-vinblastine] | ~45 | 0 | 15.0 | 21.0 | 20.5 | 145 | 200 | 207 | alive (NK/Ly ascites lymphoma; 5 × 4.0 mg./kg. i.p.): 10/10; on the 25th day tumor-free (NK/Ly ascites lymphoma; 5 × 4.0 mg./kg. i.p.): 10/10; on the 30th day tumor-free (NK/Ly ascites lymphoma; 5 × 4.0 mg./kg. i.p.): 6/10
2 | CCC1(O)CC2CN(CCc3c([nH]c4ccccc34)C(C(=O)OC)(c3cc4c(cc3OC)N(COCc3ccccc3)C3C(O)(C(=O)OC)C(OC(C)=O)C5(CC)C=CCN6CCC43C65)C2)C1 (centres unmarked) [N-Desmethyl-N-(benzyloxymethyl)-vinblastine] | ~70 | 0 | 13.0 | 18.3 | – | 126 | 178 | – | relative effectiveness (HeLa culture): weakest effect; effect on mitosis at lowest dose (HeLa culture): minimum block with several deformed mitoses but without anaphases; effect on mitosis at 0.01 μg./ml. (HeLa culture; 0.01 μg./ml.): the block was moderate; Mean length of life, treated (P 388 mouse leukaemia; 5 × 8.0 mg./kg. i.p.): 19.2 days; response vs control in vivo at 8 mg/kg (P 388 mouse leukaemia; Mus musculus, P388, ip, mean length of life, 5 × 8.0 mg./kg. i.p., read-out: Treated/Control): 195%
3 | CCC1(O)CC2CN(CCc3c([nH]c4ccccc34)C(C(=O)OC)(c3cc4c(cc3OC)N(COC3CCCCC3)C3C(O)(C(=O)OC)C(OC(C)=O)C5(CC)C=CCN6CCC43C65)C2)C1 (centres unmarked) [N-Desmethyl-N-(cyclohexaloxymethyl)vinblastine] | ~60 | 0 | 13.1 | 18.8 | 19.3 | 127 | 181 | 197 | alive (NK/Ly ascites lymphoma; 5 × 4.0 mg./kg. i.p.): 10/10; on the 25th day tumor-free (NK/Ly ascites lymphoma; 5 × 4.0 mg./kg. i.p.): 5/10; on the 30th day tumor-free (NK/Ly ascites lymphoma; 5 × 4.0 mg./kg. i.p.): 3/10
4 | CCOCN1c2cc(OC)c(C3(C(=O)OC)CC4CN(CCc5c3[nH]c3ccccc53)CC(O)(CC)C4)cc2C23CCN4CC=CC(CC)(C(OC(C)=O)C(O)(C(=O)OC)C12)C43 (centres unmarked) [N-Desmethyl-N-(ethoxymethyl)-vinblastine] | ~110 | 0 | – | 18.5 | 20.5 | – | 167 | 208 | Mean length of life, treated (P 388 mouse leukaemia; 8 × 2.0 mg./kg. i.p.): 20.3 days; response vs control in vivo at 2 mg/kg (P 388 mouse leukaemia; [6]): 193%
5 | CCCCCCCOCN1c2cc(OC)c(C3(C(=O)OC)CC4CN(CCc5c3[nH]c3ccccc53)CC(O)(CC)C4)cc2C23CCN4CC=CC(CC)(C(OC(C)=O)C(O)(C(=O)OC)C12)C43 (centres unmarked) [N-Desmethyl-N-(heptoxymethyl)-vinblastine] | ~60 | 0 | 14.3 | 18.7 | 21.3 | 139 | 181 | 247 | relative effectiveness (HeLa culture): most effective compound; alive (NK/Ly ascites lymphoma; 5 × 6.0 mg./kg. i.p.): 10/10; on the 25th day tumor-free (NK/Ly ascites lymphoma; 5 × 6.0 mg./kg. i.p.): 7/10; on the 30th day tumor-free (NK/Ly ascites lymphoma; 5 × 6.0 mg./kg. i.p.): 3/10
6 | CCC1(O)CC2CN(CCc3c([nH]c4ccccc34)C(C(=O)OC)(c3cc4c(cc3OC)N(COCC(C)C)C3C(O)(C(=O)OC)C(OC(C)=O)C5(CC)C=CCN6CCC43C65)C2)C1 (centres unmarked) [N-Desmethyl-N-(isobutoxymethyl)-vinblastine] | ~60 | 0 | 13.7 | 20.0 | 20.5 | 133 | 194 | 208 | relative effectiveness (HeLa culture): an order of a magnitude lower effect; effect on mitosis at lowest dose (HeLa culture): regular mitoses could still be observed; alive (NK/Ly ascites lymphoma; 5 × 4.0 mg./kg. i.p.): 10/10; on the 25th day tumor-free (NK/Ly ascites lymphoma; 5 × 4.0 mg./kg. i.p.): 10/10; on the 30th day tumor-free (NK/Ly ascites lymphoma; 5 × 4.0 mg./kg. i.p.): 7/10
7 | CCC1CC2CN(CCc3c([nH]c4ccccc34)C(C(=O)OC)(c3cc4c(cc3OC)N(COC)C3C(O)(C(=O)OC)C(OC(C)=O)C5(CC)C=CCN6CCC43C65)C2)C1 (centres unmarked) [N-Desmethyl-N-(methoxymethyl)-20'-desoxyleurosidine] | – | – | – | – | – | – | – | – | Mean length of life, treated ([2]; 4 × 7 mg./kg. i.p.): 17.1 days; Mean length of life, treated ([2]; 4 × 8 mg./kg. i.p.): 21.8 days; Mean length of life, treated ([2]; 8 × 0.5 mg./kg. i.p.): 15.3 days; Mean length of life, treated ([2]; 8 × 1 mg./kg. i.p.): 21.7 days; Mean length of life, treated ([2]; 8 × 4 mg./kg. i.p.): 20.8 days; Treated/Control ([2]; 4 × 7 mg./kg. i.p.): 142%; Treated/Control ([2]; 4 × 8 mg./kg. i.p.): 180%; Treated/Control ([2]; 8 × 0.5 mg./kg. i.p.): 126%; Treated/Control ([2]; 8 × 1 mg./kg. i.p.): 178%; Treated/Control ([2]; 8 × 4 mg./kg. i.p.): 180%
8 | CCC1(O)CC2CN(CCc3c([nH]c4ccccc34)C(C(=O)OC)(c3cc4c(cc3OC)N(COC)C3C(O)(C(=O)OC)C(OC(C)=O)C5(CC)C=CCN6CCC43C65)C2)C1 (centres unmarked) [N-Desmethyl-N-(methoxymethyl)-vinblastine] | ~100 | 0 | – | – | – | – | 171 | – | Mean length of life, treated (P 388 mouse leukaemia; 8 × 1.0 mg./kg. i.p.): 12.7 days; Mean length of life, treated (P 388 mouse leukaemia; 8 × 6.0 mg./kg. i.p.): 19.2 days; response vs control in vivo at 1 mg/kg (P 388 mouse leukaemia; [7]): 122%; response vs control in vivo at 6 mg/kg (P 388 mouse leukaemia; Mus musculus, P388, ip, mean length of life, 8 × 6.0 mg./kg. i.p., read-out: Treated/Control): 182%
9 | CCCOCN1c2cc(OC)c(C3(C(=O)OC)CC4CN(CCc5c3[nH]c3ccccc53)CC(O)(CC)C4)cc2C23CCN4CC=CC(CC)(C(OC(C)=O)C(O)(C(=O)OC)C12)C43 (centres unmarked) [N-Desmethyl-N-(propoxymethyl)-vinblastine] | ~80 | 0 | – | 19.0 | 20.2 | – | 171 | 205 | Mean length of life, treated (P 388 mouse leukaemia; 8 × 1.0 mg./kg. i.p.): 15.0 days; Mean length of life, treated (P 388 mouse leukaemia; 8 × 2.0 mg./kg. i.p.): 20.8 days; Mean length of life, treated (P 388 mouse leukaemia; 8 × 10.0 mg./kg. i.p.): 14.7 days; Toxicity (P 388 mouse leukaemia; 8 × 10.0 mg./kg. i.p., footnote: The animals died tumorfree): toxic; response vs control in vivo at 1 mg/kg (P 388 mouse leukaemia; [7]): 145%; response vs control in vivo at 2 mg/kg (P 388 mouse leukaemia; [6]): 198%; response vs control in vivo at 10 mg/kg (P 388 mouse leukaemia; Mus musculus, P388, ip, mean length of life, 8 × 10.0 mg./kg. i.p., read-out: Treated/Control): 142%
10 | CC[C@]1(O)C[C@@H]2CN(CCc3c([nH]c4ccccc34)[C@@](C(=O)OC)(c3cc4c(cc3OC)N(C)[C@H]3[C@@](O)(C(=O)OC)[C@H](OC(C)=O)[C@]5(CC)C=CCN6CC[C@]43[C@@H]65)C2)C1 [vinblastine, reference compound] | – | 0 | – | – | – | – | – | – | –
11 | CC[C@]1(O)C[C@@H]2CN(CCc3c([nH]c4ccccc34)[C@@](C(=O)OC)(c3cc4c(cc3OC)N(C)[C@H]3[C@@](O)(C(N)=O)[C@H](O)[C@]5(CC)C=CCN6CC[C@]43[C@@H]65)C2)C1 [vindesine, reference compound] | 4 | – | – | – | – | – | – | – | –
